According to patent US8455528B2, “Imidazole derivatives useful as inhibitors of FAAH” (Merck Sharp & Dohme Corp., priority 2008, dated 2013):

Each molecule was assayed against T1, Human FAAH (Homo sapiens, UniProt O00519) (assay: Human FAAH lysate assay (CHO cell lysate, AAMCA fluorescent substrate)). Details: human FAAH lysate; read-out: Human FAAH lysate assay: IC50.
T1 construct: The full length FAAH was subcloned into the mammalian expression vector, pcDEF.neo; expressed in transfected cells
T1 sequence (O00519 1-579): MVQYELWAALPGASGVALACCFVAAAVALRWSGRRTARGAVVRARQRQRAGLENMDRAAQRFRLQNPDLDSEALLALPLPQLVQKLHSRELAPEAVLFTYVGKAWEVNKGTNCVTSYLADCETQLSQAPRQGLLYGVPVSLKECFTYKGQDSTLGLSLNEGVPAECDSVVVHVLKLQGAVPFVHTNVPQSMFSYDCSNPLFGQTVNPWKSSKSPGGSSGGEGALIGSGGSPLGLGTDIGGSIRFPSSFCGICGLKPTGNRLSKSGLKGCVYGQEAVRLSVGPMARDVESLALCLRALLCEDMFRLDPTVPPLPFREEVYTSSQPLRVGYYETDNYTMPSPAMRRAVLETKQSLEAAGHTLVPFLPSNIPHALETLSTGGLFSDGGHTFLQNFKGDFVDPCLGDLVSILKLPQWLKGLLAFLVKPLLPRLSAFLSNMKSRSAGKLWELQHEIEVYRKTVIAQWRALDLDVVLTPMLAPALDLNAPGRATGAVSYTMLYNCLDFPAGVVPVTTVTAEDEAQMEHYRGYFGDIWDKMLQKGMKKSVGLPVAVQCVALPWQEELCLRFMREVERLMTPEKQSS
Type: biochemical
Excerpt: To assist in assay development stable cell lines for human, murine and rat full length FAAH were developed. Human FAAH cDNA (Accession No: NM-001441.1) was purchased from Origene (Rockville, Md.). The full length FAAH was subcloned into the mammalian expression vector, pcDEF.neo, using XbaI and EcoRI restriction sites and used for stable cell line generation. CHO cells expressing FAAH were used to prepare either crude cell lysate or microsome fractions. To harvest cells, tissue culture media was decanted, the monolayer washed three times with Ca^++Mg^++ free PBS and cells recovered after 15 min in enzyme free dissociation media (Millipore Corp, Billerica, Mass.). Cells were collected by centrifuging at 2000 rpm for 15 min. and the cell pellet re-suspended with 50 mM HEPES (pH 7.4) containing 1 mM EDTA and the protease inhibitors aprotinin (1 mg/ml) and leupeptin (100 μM). […] The pellet containing FAAH-enriched microsomes was re-suspend in 50 mM HEPES, (pH 7,4) 1 mM EDTA, and any remaining DNA sheared by passage of material through a 23 gauge needle and aliquots of enzyme were store at -80° C. prior to use. […] (American Radiolabeled Chemicals; 1 mCi/ml) with FAAH (Life Sciences (1995), 56, 1999-2005 and Journal of Pharmacology and Experimented Therapeutics (1997), 283, 729-734), Analytical. Biochemistry (2003), 318, 270-5. […] Analytical. Biochemistry (2005). 343, 143-51 […] Fluorescent release as a measure of FAAH activity was monitored by reading the plate in a CytoFluor Multiplate Reader ([…]). Whole cell assay is conducted with cells harvested after rinsing tissue culture flasks three times with Ca^++Mg^++ free PBS, incubating for 10 min in Enzyme free dissociation media and centrifuging for 5 minutes at 1,000 rpm in table top centrifuge. Cells are resuspended in assay buffer at desired cell number in (4×10^4 cells/assay in 96-well format; 1×10^4 cells/assay in 384-well format) and assayed as described. […] The reaction was terminated by addition of 2 volumes of chloroform:methanol (1:1) and mixed by vortexing. […] K., et al. A fluorescence-based assay for fatty acid amide hydrolase compatible with high-throughput screening. Anal. Biochem. 343:143-51 (2005) • Wilson S. J., et l. A high-throughput-compatible assay for determining the activity of fatty acid amide hydrolase. Anal Biochem. 318:270-5 (2003).

Point of comparison: `Cn1c(-c2ccn(CC(C)(C)O)n2)nc(-c2ccc(C#N)cc2)c1Sc1ccc(Cl)cc1` [Example 145, 4-{5-[(4-chlorophenyl)sulfanyl]-2-[1-(2-hydroxy-2-methylpropyl)-1H-pyrazol-3-yl]-1-methyl-1H-imidazol-4-yl}benzonitrile], IC50 23.1 nM. Against it:
- CCn1ccc(-c2nc(-c3ccc(-c4ncon4)cc3)c(Sc3ccc(Cl)cc3)n2C)n1 [Example 140, 3-4-({5-[(4-chlorophenyl)sulfanyl]-2-(1-ethyl-1H-pyrazol-3-yl)-1-methyl-1H-imidazol-4-yl)phenyl)-1,2,4-oxadiazole] — within 1.5-fold, 28.7 nM
- CCn1nccc1-c1nc(-c2ccc(-c3ncon3)cc2)c(Sc2ccc(Cl)cc2)n1C [Example 141, 3-(4-{5-[(4-chlorophenyl)sulfanyl]-2-(1-ethyl-1H-pyrazol-5-yl)-1-methyl-1H-imidazol-4-yl}phenyl)-1,2,4-oxadiazole] — 2.9-fold higher, 67.9 nM
- CC(C)n1ccc(-c2nc(-c3ccc(-c4ncon4)cc3)c(Sc3ccc(Cl)cc3)n2C)n1 [Example 142, 3-(4-{5-[(4-chlorophenyl)sulfanyl]-1-methyl-2-[1-(propan-2-yl)-1H-pyrazol-3-yl]-1H-imidazol-4-yl}phenyl)-1,2,4-oxadiazole] — within 1.5-fold, 15.6 nM
- Cn1ccc(-c2nc(-c3ccc(-c4ncon4)cc3)c(Sc3ccc(Cl)cc3)n2C)n1 [Example 143, 3-(4-{5-[(4-chlorophenyl)sulfanyl]-1-methyl-2-(1-methyl-1H-pyrazol-3-yl)-1H-imidazol-4-yl}phenyl)-1,2,4-oxadiazole] — 2-fold lower, 11.7 nM
- Cn1c(-c2ccn(C3CC3)n2)nc(-c2ccc(-c3ncon3)cc2)c1Sc1ccc(Cl)cc1 [Example 144, 3-(4-{5-[(4-chlorophenyl)sulfanyl]-2-(1-cyclopropyl-1H-pyrazol-3-yl)-1-methyl-1H-imidazol-4-yl}phenyl)-1,2,4-oxadiazole] — 3.1-fold lower, 7.4 nM
- Cn1c(C(C)(C)O)nc(-c2ccc(-c3ncon3)cc2)c1Sc1ccc(Cl)cc1 [Example 146, 2-{5-[(4-chlorophenyl)sulfanyl]-1-methyl-4-[4-(1,2,4-oxadiazol-3-yl)phenyl]-1H-imidazol-2-yl}propan-2-ol] — 9-fold higher, 208 nM
- CCOC(C)(C)c1nc(-c2ccc(-c3ncon3)cc2)c(Sc2ccc(Cl)cc2)n1C [Example 147, 3-(4-{5-[(4-chlorophenyl)sulfanyl]-2-(2-ethoxypropan-2-yl)-1-methyl-1H-imidazol-4-yl}phenyl)-1,2,4-oxadiazole] — within 1.5-fold, 24.4 nM
- Cn1c(-c2cc(C3CC3)on2)nc(-c2ccc(C(C)(C)O)nc2)c1Sc1ccc(Cl)cn1 [Example 148, 2-(5-{5-[(5-chloropyridin-2-yl)sulfanyl]-2-(5-cyclopropylisoxazol-3-yl)-1-methyl-1H-imidazol-4-yl}pyridin-2-yl)propan-2-ol] — 3.9-fold higher, 91 nM
